The record followed here is patent US9408393B2, “Bismuth-thiols as antiseptics for agricultural, industrial and other uses” (Microbion Corporation, priority 2010, dated 2016).

One assay has as its system Enteromorpha spores. Nature of the assay: Inhibition of algae spore germination. To be noted: up to ten micrograms per ml. Here is the method:
The effect of three bismuth containing compounds, bismuth dimercaprol (BisBAL), bismuth dimercaptotoluene (BisTOL), and bismuth ethanedithiol (BisEDT), on the settlement of algae was determined, particularly the ability of each compound to inhibit germination of Enteromorpha spores. Each compound was tested at 0.001, 0.01, 0.1, 1.0, and 10.0 μg/ml.

For another assay, the system named is barnacle larvae. Briefly: Barnacle larvae settlement inhibition. How it is done:
Compounds, BisBAL and BisTOL were included in an assay to determine the inhibitory activity of each compound on barnacle larvae settlement behavior. Methods were performed according to techniques practiced in the art. […] In another experiment, BisEDT was dissolved either directly in natural seawater or first dissolved in DMSO and then diluted in natural seawater. The EC50 measurements were not statistically different.

For a further assay, the system named is marine diatom. Briefly: Marine diatom settlement inhibition. As to conditions: 0.1 μg/ml. Here is the method: The effect of three bismuth containing compounds, bismuth dimercaprol (BisBAL), bismuth dimercaptotoluene (BisTOL), and bismuth ethanedithiol (BisEDT), on growth of a marine diatom was determined according to techniques practiced in the art. Settlement of marine diatoms (diatoms per fov) was inhibited by increasing concentrations of each of the three compounds (0.001, 0.01, 0.1, 1.0, and 10.0 μg/ml). […] 1987; 41:435-64; Domenico et al., Antimicrob Agents and Chemother. 2001; 45(5):1417-21; Halwani et al., Int J Pharm. 2008; 358:278-84; Johnson et al., Clin Infect Dis. 2007; 45(4):409-415. ADA Council on Scientific Affairs. Direct and indirect restorative materials. JADA 2003; 134:463-72. Alliance for Coastal Technologies (ACT). 2004. Biofouling Prevention Technologies for Coastal Sensors/Sensor Platforms. University of Maryland Center of Environmental Science, Workshop Proceedings, November 2003. UMCES Technical Report Series No. TS-426-04-CBL, Solomons, M D. Athanassiadis et al., Aust Dent J 2007; 52:S64-82. Alt et al., Antimicrob Agents Chemother 2004; 48:4084-88. Bayston et al., Biomaterials 2009; 30:3167-73. Bernardo et al., JADA 2007; 138:775-783. Beytha et al., J Dent 2007; 35:201-206. Bohner et al., J Pharm Sci 1997; 86:565-72. Bruxton, Eng News 1908; 59,525; Chem. Abs., 2:2010. Bueno et al. Oral Surg Oral Med Oral Pathol Oral Radiol Endod 2009; 107:e65-9. […]

A further assay deals with M. hydrocarbonoclasicus. Nature of the assay: MIC against marine bacteria. In kind it is cell-based. As to conditions: marine bacterium M. hydrocarbonoclasicus. Here is the method:
(§1) This example describes the antimicrobial activity of bismuth containing compounds. The MIC values of three bismuth containing compounds, bismuth dimercaprol (BisBAL), bismuth dimercaptotoluene (BisTOL), and bismuth ethanedithiol (BisEDT), against three different marine bacteria were determined using methods routinely practiced by persons skilled in the art.

The subject of a further assay is H. marina. Nature of the assay: MIC against marine bacteria. The class given is cell-based. To be noted: marine bacterium H. marina. How it is done:
as §1

The next assay concerns V. alginolyticus. Briefly: MIC against marine bacteria. The class given is cell-based. As to conditions: marine bacterium V. alginolyticus. Here is the method:
as §1

As to bismuth dimercaptotoluene [BisTOL], the “Effect on germination of algae spores” value in the assay with Enteromorpha spores was “no inhibitory effect”. Also, the “EC50 (concentration at which 50% settlement inhibition occurs)” value in the assay on barnacle larvae was 15.4 ppm. Besides, the “Inhibition of marine diatom settlement” value with marine diatom is “approximately 30%”. The MIC against M. hydrocarbonoclasicus is 0.4 µg/mL; in the assay with H. marina it was 7.2 µg/mL; in the assay with V. alginolyticus it was 1 µg/mL.

What is called MIC is the lowest concentration found to suppress growth.
